Entries after “also recorded” stand apart in the source; their conditions may differ.
Tests used:
Format in all cases: in vivo, male Sprague-Dawley (SD) rats
[1] = test system: Prostate-Specific Antigen (PSA); test: PSA expression in prostate tissue and serum of BPH rats (western blot); conditions: three weeks, CA 100 mg/kg, CAEF 200 mg/kg, CAEF formulation 200 mg/kg
[2] = test system: prostatic tissues in testosterone induced BPH rats; test: Histopathological examination (H&E) of prostate tissue in testosterone-induced BPH rats; conditions: for Histological conditions / architecture of the prostate: BPH induced rats (FIG. 4)
[3] = test system: PSA; test: PSA level in serum of BPH rats (ELISA); conditions: summary statement, FIGS. 5 and 7
[4] = test system: Testosterone-induced BPH rats; test: Prostate weight and prostate weight index (PI) in testosterone-induced BPH rat model; conditions: for Prostatic weight: BPH induced rats, vs induced group (FIGS. 3 and 6); for Prostate weight index (PI): oral once a day for 21 days, CA 100 mg/kg, CAEF 100/200 mg/kg, Finasteride 3 mg/kg, vs Testosterone induced group (FIG. 3)
Method: 12-14-week-old (3 month) male Sprague-Dawley (SD) rats with initial body weights of 200-220 g were taken from National Animal Laboratory Centre, CSIR-Central drug research institute (CDRI), Lucknow. The animals were maintained in conditions in accordance with the rules and regulation of animal ethical committee. These rats were housed in a pathogen-free room at 23±2° C. and a relative humidity of 70% with an alternating 12 h light/dark cycle. To assess the therapeutic effect of Chebulinic Acid (CA) and Chebulinic acid Enriched fraction (CAEF) on Benign Prostatic Hyperplasia (BPH), rat BPH model has been successfully generated by testosterone induction method. For model induction of BPH, Orchiectomy (Surgical removal of Testis) of rats was performed and then animals were left for ten days to recover. Now BPH was induced through the daily subcutaneous injections of Testosterone (5 mg/kg & 6.25 mg/ml in Corn Oil) at the inguinal region for 28 days continuously. While the treatment group received 7 days continuous administration of Testosterone and then Testosterone+CA (100 mg/kg B.W) or Testosterone+CAEF (100/200 mg/kg B.W.) or Testosterone+Finasteride (3 mg/kg) were administered orally once a day to these animals for next 21 days (FIG. 3). In another experiment the treatment group received 7 days continuous administration of Testosterone and then Testosterone+CAEF (100 mg/kg B.W.) administered orally once a day to these animals for next 4 weeks (group 1) 8 weeks (group 2) and 12 weeks (group 3) (FIG. 6). After that these animals were left for fasting overnight and sacrificed next day; their prostatic as well as other reproductive organs were dissected out. Portions of the prostatic ventral lobes were stored in 4% paraformaldehyde for histological and immuno-histochemical processing. Half of the remaining prostate tissue was stored in RNA later and the other half was stored at −80° C. for subsequent biochemical and molecular experiments. Blood samples were obtained from the caudal vena cava and collected in serum separating tubes. Testosterone induced BPH animal models were sacrificed after the simultaneous treatment of 21 days. The intact prostate tissue was dissected and removed carefully from these sacrificed animals. Now the prostate weight (PW) was measured and the prostate index (PI) was calculated as PW (mg)/Body Weight (gm)×100. Data were expressed as the mean±SEM of four animals per group (n=4 per group). The values were analysed using one-way analysis of variance. Values were considered statistically significant at p<0.05.

[5] = Testosterone serum level in BPH rats; conditions: BPH induced rats after treatment
[6] = test system: anti-apoptotic markers; test: Anti-apoptotic markers in BPH rats (FIGS. 8-13, summary); conditions: summary of FIGS. 8-13
Method: (§1) To assess the therapeutic effect of Chebulinic Acid (CA) and Chebulinic acid Enriched fraction (CAEF) on Benign Prostatic Hyperplasia (BPH), rat BPH model has been successfully generated by testosterone induction method. For model induction of BPH, Orchiectomy (Surgical removal of Testis) of rats was performed and then animals were left for ten days to recover. Now BPH was induced through the daily subcutaneous injections of Testosterone (5 mg/kg & 6.25 mg/ml in Corn Oil) at the inguinal region for 28 days continuously. While the treatment group received 7 days continuous administration of Testosterone and then Testosterone+CA (100 mg/kg B.W) or Testosterone+CAEF (100/200 mg/kg B.W.) or Testosterone+Finasteride (3 mg/kg) were administered orally once a day to these animals for next 21 days (FIG. 3). In another experiment the treatment group received 7 days continuous administration of Testosterone and then Testosterone+CAEF (100 mg/kg B.W.) administered orally once a day to these animals for next 4 weeks (group 1) 8 weeks (group 2) and 12 weeks (group 3) (FIG. 6). After that these animals were left for fasting overnight and sacrificed next day; their prostatic as well as other reproductive organs were dissected out. Portions of the prostatic ventral lobes were stored in 4% paraformaldehyde for histological and immuno-histochemical processing. […]

[7] = test system: Procaspase 3; test: Expression of Procaspase 3 in BPH induced rat model; conditions: vs induced animal model; finasteride positive control
[8] = test system: Vascular endothelial growth factor (VEGF); test: Expression of VEGF in BPH induced rat model; conditions: within three weeks; vs non-treated induced BPH group; finasteride positive control
[9] = test system: Poly [ADP-ribose] polymerase 1 (PARP1); test: Expression of PARP1 in BPH induced rat model; conditions: vs BPH induced group; finasteride positive control
Method: as §1

SMILES | PSA expression in prostate tissue [1] | PSA expression in serum [1] | Histological conditions / architecture of the prostate [2] | Histological conditions / architecture of the prostate ([2]; listed as Chebulinic acid) | Glandular hyperplasia of the prostate (histopathological examination) ([2]; BPH rats) | Prostatic lumen area ([2]; H&E, CA/CAEF 100/200 mg/kg, vs Induced BPH group (FIG. 4)) | Level of PSA in sera [3] | Prostatic weight index compared with normal control group ([4]; 100/200 mg/kg dose (FIG. 3) and 100 mg/kg of CAEF (FIG. 6)) | Prostatic weight [4] | Prostatic weight ([4]; listed as Chebulinic acid) | Prostate weight index (PI) [4] | Development of prostatic hyperplasia ([4]; testosterone-induced BPH rats) | Level of testosterone in sera [5] | Anti-apoptotic markers [6] | Expression of Procaspase 3 [7] | Expression of VEGF [8] | Expression of PARP1 [9]
O=C(O)CC1C(=O)OC2C(COC(=O)c3cc(O)c(O)c(O)c3)OC(OC(=O)c3cc(O)c(O)c(O)c3)C(OC(=O)c3cc(O)c(O)c4c3C1C(O)C(=O)O4)C2OC(=O)c1cc(O)c(O)c(O)c1 [CA, 1.3,6-tri-O-galloyl-2,4-chebuloyl-beta-D-glucose] | down-regulated | down-regulated | improved histological conditions | restored the altered histological architecture | mild glandular hyperplasia | increased prostatic lumen areas significantly | reduced level | quite close to the normal control group | reduced significantly; also recorded: significant reduction | decreased the prostate weight | significantly decreased; also recorded: reduced significantly | significantly suppressed; also recorded: suppressed the development of prostatic hyperplasia considerably | reduced level | down-regulated | – | – | –
CC(C)(C)NC(=O)[C@H]1CC[C@H]2[C@@H]3CC[C@H]4NC(=O)C=C[C@]4(C)[C@H]3CC[C@]12C [Finasteride] | – | – | – | – | – | – | – | – | – | – | close to the 200 mg/kg CA/CAEF treated group | – | – | – | decreased expression | reduced expression | reduced expression

From US12605418B2, “Chebulinic acid and its enriched fraction from the fruits of Terminalia chebula for treatment of benign prostatic hyperplasia (BPH) and its preparation thereof” (COUNCIL OF SCIENTIFIC AND INDUSTRIAL RESEARCH, priority 2020, dated 2026)
